Assays:
Type in all cases: cell-based
Hep3B cells = test: Hep3B cell killing experiment (CellTiter-Glo cell viability); conditions: Homo sapiens, 48 h incubation, CTG luminescence
Method: (§1) Hep3B cell lines were purchased from ATCC (Cat #ATCC® HB-8064™), EMEM media were purchased from ATCC (Cat #ATCC® 30-2003™), FBS was purchased from Gibco (Cat #10091148), celltiter-glo luminescent cell viability assay was purchased from promega (Cat #G7572), and 96-well plates were purchased from coming (Cat #3610).
The effect of compounds on the growth of Hep3B cells was determined by measuring cell viability and growth rate. Firstly, the cells were digested with pancreatin, and the digestion was then terminated with medium. The cells were centrifuged, and the supernatant was discarded. The centrifuged cells were resuspended in a fresh complete medium, and the cell density was adjusted to 5×10^4 cells/mL. The resuspended cells were inoculated into two identical opaque 96-well cell culture plates at 100 μL of cell suspension per well, and the cell culture plates were incubated in a cell incubator at 37° C. overnight. The next day, dilutions (20 μL) of compounds with different concentrations were added. After one of the cell plates was cooled to room temperature, 60 μL of CTG reagent was added. The luminescence values were read on the instrument as G0. The other one was incubated in a cell incubator for 48 h. After 48 h, 60 μL of CTG reagent was added, and the luminescence values were read on the instrument as G3.
(§2) According to the corresponding proliferation rate and concentration of each gradient concentration well, a gradient curve of cell proliferation was fitted using XLFit software, and the GI50 values of compounds were calculated.

SU-DHL-2 cells = test: SU-DHL-2 cell killing experiment (CellTiter-Glo cell viability); conditions: Homo sapiens, 48 h incubation, CTG luminescence
Method: as §1, with “SU-DHL-2” for “Hep3B”, “CRL-2956™), RPMI1640” for “HB-8064™), EMEM”, “30-2001™),” for “30-2003™),”
(§3) The effect of compounds on the growth of SU-DHL-2 cells was determined by measuring cell viability and growth rate. Firstly, cells in the logarithmic growth phase were collected and centrifuged, and the culture supernatant was discarded. The centrifuged cells were resuspended in a fresh complete medium, and the cell density was adjusted to 5×10^4 cells/mL. The resuspended cells were inoculated into two identical opaque 96-well cell culture plates at 100 μL of cell suspension per well, and the cell culture plates were incubated in a cell incubator at 37° C. for 4 h. After 4 h, dilutions (20 μL) of compounds with different concentrations were added. After one of the cell plates was cooled to room temperature, 60 μL of CTG reagent was added, and the luminescence values were read on the instrument as G0. The other one was incubated in a cell incubator for 48 h. After 48 h, 60 μL of CTG reagent was added, and the luminescence values were read on the instrument as G3.
as §2

GSPT1 = molecular target: T1, GSPT1 (Homo sapiens, UniProt P15170+Q96SW2); test: Degradation of GSPT1 by the compounds (HiBiT signal in GSPT1/HEK293 hibit cells); conditions: 6 h incubation, Nano Glo HiBiT Lytic Detection
T1 construct: host or cells: HEK293
Method: GSPT1/HEK293 hibit cell lines were constructed by Shanghai BioDuro Co., Ltd., HEK293 cell lines were purchased from ATCC (Cat #ATCC® CRL-1573™), DMEM media were purchased from ATCC (Cat #ATCC® 30-2002™), FBS was purchased from Gibco (Cat #10091148), Nano Glo HiBiT Lytic Detection System was purchased from Promega (Cat #N3040), and 96-well plates were purchased from coming (Cat #3610).
The degradation of GSPT1 by the compounds was determined by measuring the intensity of hibit signals in cells. Firstly, the cells were digested with pancreatin, and the digestion was then terminated with medium. The cells were centrifuged, and the supernatant was discarded. The centrifuged cells were resuspended in a fresh complete medium, and the cell density was adjusted to 2.5×10^4 cells/mL. The resuspended cells were inoculated into an opaque 96-well cell culture plate at 100 μL of cell suspension per well, and the cell culture plate was incubated in a cell incubator at 37° C. overnight. The next day, dilutions (20 μL) of compounds with different concentrations were added, and the plate was incubated in a cell incubator for 6 h. After 6 h, 60 μL of Nano Glo HiBiT Lytic Detection System reagent was added and the luminescence values were read on the instrument.
According to the corresponding degradation rate and concentration of each gradient concentration well, a gradient curve of degradation rate was fitted using XLFit software, and the DC50 values of compounds were calculated.

NCI-H929 cells = test: NCI-H929 cell killing experiment (CellTiter-Glo cell viability); conditions: Homo sapiens, 48 h incubation, CTG luminescence
Method: as §1, with “NCI-H929” for “Hep3B”, “CRL-9068™), RPMI1640” for “HB-8064™), EMEM”, “30-2001™),” for “30-2003™),”
as §3, with “2. Method The effect” for “The effect”, “growth of NCI-H929 cells was” for “growth of SU-DHL-2 cells was”
as §2

HL60 cells = test: HL60 cell killing experiment (CellTiter-Glo cell viability); conditions: CTG luminescence
Method: as §1, with “HL60” for “Hep3B”, “CCL-240™), IMDM” for “HB-8064™), EMEM”, “30-2005™),” for “30-2003™),”, “corning” for “coming”
as §3, with “HL60” for “SU-DHL-2”, “viability.” for “viability and growth rate.”, “two” for “two identical”
as §2

THP-1 cells = test: THP-1 cell killing experiment (CellTiter-Glo cell viability); conditions: Homo sapiens, 48 h incubation, CTG luminescence
Method: as §1, with “THP-1” for “Hep3B”, “TIB-202™), RPMI1640” for “HB-8064™), EMEM”, “30-2001™),” for “30-2003™),”
as §3, with “THP-1” for “SU-DHL-2”
as §2

Jurkat cells = test: Jurkat cell killing experiment (CellTiter-Glo cell viability); conditions: Homo sapiens, 48 h incubation, CTG luminescence
Method: as §1, with “Jurkat” for “Hep3B”, “TIB-152™), RPMI1640” for “HB-8064™), EMEM”, “30-2001™),” for “30-2003™),”
as §3, with “Jurkat” for “SU-DHL-2”
as §2

Toledo cells = test: Toledo cell killing experiment (CellTiter-Glo cell viability); conditions: Homo sapiens, 48 h incubation, CTG luminescence
Method: as §1, with “Toledo” for “Hep3B”, “CRL-2631™), RPMI1640” for “HB-8064™), EMEM”, “30-2001™),” for “30-2003™),”
as §3, with “Toledo” for “SU-DHL-2”
as §2

[1] = Homo sapiens, HL-60, 48 h incubation

T1 sequence (P15170 whole entry): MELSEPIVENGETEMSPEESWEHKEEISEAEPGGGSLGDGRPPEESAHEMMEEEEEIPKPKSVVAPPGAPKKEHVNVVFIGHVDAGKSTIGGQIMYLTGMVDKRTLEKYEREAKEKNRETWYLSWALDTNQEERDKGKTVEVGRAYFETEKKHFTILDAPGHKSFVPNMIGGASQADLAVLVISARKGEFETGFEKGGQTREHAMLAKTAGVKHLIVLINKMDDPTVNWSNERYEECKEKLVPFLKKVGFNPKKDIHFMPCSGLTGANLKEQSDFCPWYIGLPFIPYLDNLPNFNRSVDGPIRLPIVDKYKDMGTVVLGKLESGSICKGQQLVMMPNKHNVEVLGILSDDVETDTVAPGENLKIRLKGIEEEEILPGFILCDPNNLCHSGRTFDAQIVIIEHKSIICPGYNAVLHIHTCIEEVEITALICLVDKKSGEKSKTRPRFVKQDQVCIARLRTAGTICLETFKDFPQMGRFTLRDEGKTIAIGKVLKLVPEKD
T1 sequence (Q96SW2 whole entry): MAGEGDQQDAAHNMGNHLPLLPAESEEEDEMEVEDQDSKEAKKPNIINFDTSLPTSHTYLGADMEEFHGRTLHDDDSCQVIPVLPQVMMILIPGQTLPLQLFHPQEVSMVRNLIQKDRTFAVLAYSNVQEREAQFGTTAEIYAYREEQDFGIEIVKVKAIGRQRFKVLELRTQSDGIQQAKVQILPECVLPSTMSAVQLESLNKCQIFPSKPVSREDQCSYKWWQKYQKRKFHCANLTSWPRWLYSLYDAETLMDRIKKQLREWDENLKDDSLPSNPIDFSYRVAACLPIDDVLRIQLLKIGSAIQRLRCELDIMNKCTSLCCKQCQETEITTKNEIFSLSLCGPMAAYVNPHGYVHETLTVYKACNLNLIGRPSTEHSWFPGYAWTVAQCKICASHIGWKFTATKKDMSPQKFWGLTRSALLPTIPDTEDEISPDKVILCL
T1 sequence (Q16531 whole entry partner): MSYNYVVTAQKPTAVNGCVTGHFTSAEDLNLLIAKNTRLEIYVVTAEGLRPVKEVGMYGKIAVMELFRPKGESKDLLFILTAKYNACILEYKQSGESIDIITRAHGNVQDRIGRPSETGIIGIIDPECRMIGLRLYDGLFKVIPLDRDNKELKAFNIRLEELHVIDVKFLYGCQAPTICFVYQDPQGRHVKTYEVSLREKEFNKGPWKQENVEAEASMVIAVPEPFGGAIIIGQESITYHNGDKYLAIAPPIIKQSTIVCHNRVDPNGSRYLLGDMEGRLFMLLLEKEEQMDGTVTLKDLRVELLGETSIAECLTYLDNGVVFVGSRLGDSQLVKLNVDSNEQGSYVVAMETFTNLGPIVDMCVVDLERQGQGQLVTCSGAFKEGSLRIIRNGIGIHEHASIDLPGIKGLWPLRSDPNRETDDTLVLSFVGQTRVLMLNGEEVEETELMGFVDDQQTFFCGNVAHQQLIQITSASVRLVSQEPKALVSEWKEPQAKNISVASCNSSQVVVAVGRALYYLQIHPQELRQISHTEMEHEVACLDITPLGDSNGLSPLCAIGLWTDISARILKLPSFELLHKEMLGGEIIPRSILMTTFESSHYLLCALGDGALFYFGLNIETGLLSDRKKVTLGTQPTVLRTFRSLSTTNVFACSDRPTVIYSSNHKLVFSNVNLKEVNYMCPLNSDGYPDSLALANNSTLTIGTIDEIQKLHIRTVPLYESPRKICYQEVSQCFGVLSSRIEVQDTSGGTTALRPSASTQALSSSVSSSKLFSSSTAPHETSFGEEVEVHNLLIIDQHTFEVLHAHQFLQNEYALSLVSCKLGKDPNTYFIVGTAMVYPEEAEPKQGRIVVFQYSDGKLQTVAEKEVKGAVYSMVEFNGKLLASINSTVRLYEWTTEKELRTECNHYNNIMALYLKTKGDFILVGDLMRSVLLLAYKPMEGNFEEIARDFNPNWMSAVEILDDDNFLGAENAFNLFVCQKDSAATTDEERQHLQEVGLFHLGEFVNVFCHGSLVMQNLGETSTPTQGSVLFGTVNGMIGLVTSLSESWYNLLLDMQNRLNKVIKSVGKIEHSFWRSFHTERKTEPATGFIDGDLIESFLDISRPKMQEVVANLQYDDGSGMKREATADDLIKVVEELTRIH

## Cn1c2cnccc2nc1[C@H]1CC[C@H](N2Cc3ccc(CNc4cccc5c4C(=O)N(C4CCC(=O)NC4=O)C5=O)cc3C2=O)CC1 (some centres unmarked) [Example 70]
Hep3B cells
  GI50: 5.21 nM
SU-DHL-2 cells
  GI50: 22.3 nM
GSPT1
  DC50: < 100 nM
NCI-H929 cells
  GI50: 1.63 nM
HL60 cells; [1]
  GI50: < 100 nM

## CC(C)n1c(C2CCC(NC(=O)c3cccc(CNc4cccc5c4C(=O)N(C4CCC(=O)NC4=O)C5=O)c3)CC2)nc2cccnc21 (centres unmarked) [Example 83]
Hep3B cells
  GI50: 7.88 nM
GSPT1
  DC50: < 100 nM
NCI-H929 cells
  GI50: 5.49 nM
HL60 cells; [1]
  GI50: < 100 nM
THP-1 cells
  GI50: 67.6 nM

## Cn1c(C2CCC(NC(=O)c3cc(CNc4cccc5c4C(=O)N(C4CCC(=O)NC4=O)C5=O)ccn3)CC2)nc2ccncc21 (centres unmarked) [Example 39]
Hep3B cells
  GI50: 0.99 nM
GSPT1
  DC50: < 100 nM
HL60 cells; 48 h incubation
  GI50: < 100 nM
Jurkat cells
  GI50: 1.73 nM
Toledo cells
  GI50: 3.58 nM

## Cn1c(C2CCC(NC(=O)CCCCNc3cccc4c3C(=O)N(C3CCC(=O)NC3=O)C4=O)CC2)nc2c3c(C4CCOCC4)c[nH]c3ncc21 (centres unmarked) [Example 113]
GSPT1
  DC50: < 100 nM
HL60 cells; [1]
  GI50: < 100 nM
Toledo cells
  GI50: 1.53 nM

## O=C1CCC(N2C(=O)c3cccc(NCc4cccc(C(=O)N[C@H]5CC[C@H](c6nc7cccnc7s6)CC5)c4)c3C2=O)C(=O)N1 (some centres unmarked) [Example 61]
Hep3B cells
  GI50: 1.48 nM
GSPT1
  DC50: < 100 nM
NCI-H929 cells
  GI50: 1.08 nM
HL60 cells; [1]
  GI50: < 100 nM
Toledo cells
  GI50: 5.31 nM

## Cn1c2cnccc2nc1[C@H]1CC[C@H](NC(=O)c2cc(CNc3cccc4c3C(=O)N(C3CCC(=O)NC3=O)C4=O)ccn2)CC1 (some centres unmarked) [Example 26]
Hep3B cells
  GI50: 2.7 nM
GSPT1
  DC50: < 100 nM
HL60 cells; [1]
  GI50: < 100 nM
Jurkat cells
  GI50: 2.24 nM
Toledo cells
  GI50: 11.7 nM

## COc1ccc(CNc2cccc3c2C(=O)N(C2CCC(=O)NC2=O)C3=O)cc1C(=O)N[C@H]1CC[C@H](c2nc3cccnc3s2)CC1 (some centres unmarked) [Example 94]
GSPT1
  DC50: < 100 nM
HL60 cells; [1]
  GI50: < 100 nM
Jurkat cells
  GI50: 2.51 nM

## Cn1c(C2CCC(NC(=O)C3CC(CNc4cccc5c4C(=O)N(C4CCC(=O)NC4=O)C5=O)C3)CC2)nc2ccncc21 (centres unmarked) [Example 10]
Hep3B cells
  GI50: 6.91 nM
GSPT1
  DC50: < 100 nM
NCI-H929 cells
  GI50: 19.6 nM
HL60 cells; [1]
  GI50: < 100 nM

## O=C1CCC(N2C(=O)c3cccc(NCc4cccc(NC(=O)[C@H]5CC[C@H](c6nc7cccnc7s6)CC5)c4F)c3C2=O)C(=O)N1 (some centres unmarked) [Example 81]
SU-DHL-2 cells
  GI50: 5.62 nM
GSPT1
  DC50: < 100 nM
NCI-H929 cells
  GI50: 0.33 nM
HL60 cells; [1]
  GI50: < 100 nM
Jurkat cells
  GI50: 11.4 nM
Toledo cells
  GI50: 4.03 nM

## O=C1CCC(N2C(=O)c3cccc(NCc4ccc5cn([C@H]6CC[C@H](c7nc8cccnc8s7)CC6)nc5c4)c3C2=O)C(=O)N1 (some centres unmarked) [Example 38]
GSPT1
  DC50: < 100 nM
HL60 cells; [1]
  GI50: < 100 nM

## COc1ccc2c(c1)nc([C@H]1CC[C@H](N(C)C(=O)c3cc(CNc4cccc5c4C(=O)N(C4CCC(=O)NC4=O)C5=O)ccn3)CC1)n2C (some centres unmarked) [Example 105]
Jurkat cells
  GI50: 1.3 nM
